From publication PMC6508677, “Identification of druggable small molecule antagonists of the Plasmodium falciparum hexose transporter PfHT and assessment of ligand access to the glucose permeation pathway via FLAG-mediated protein engineering” (PLoS ONE, 2019)
Values joined by “and” are separate entries in the source; they are usually repeats but may differ in a detail not shown here. Equal values may be shown once. Read-outs that look alike come from different tables or passages of the source.

Legend:
[1] = target: T1, PfHT (Plasmodium falciparum, UniProt Q7KWJ5); experiment: Kinetic analysis of 2-DG uptake (Km) in HEK293 cells overexpressing PfHT
T1 sequence (Q7KWJ5 1-504): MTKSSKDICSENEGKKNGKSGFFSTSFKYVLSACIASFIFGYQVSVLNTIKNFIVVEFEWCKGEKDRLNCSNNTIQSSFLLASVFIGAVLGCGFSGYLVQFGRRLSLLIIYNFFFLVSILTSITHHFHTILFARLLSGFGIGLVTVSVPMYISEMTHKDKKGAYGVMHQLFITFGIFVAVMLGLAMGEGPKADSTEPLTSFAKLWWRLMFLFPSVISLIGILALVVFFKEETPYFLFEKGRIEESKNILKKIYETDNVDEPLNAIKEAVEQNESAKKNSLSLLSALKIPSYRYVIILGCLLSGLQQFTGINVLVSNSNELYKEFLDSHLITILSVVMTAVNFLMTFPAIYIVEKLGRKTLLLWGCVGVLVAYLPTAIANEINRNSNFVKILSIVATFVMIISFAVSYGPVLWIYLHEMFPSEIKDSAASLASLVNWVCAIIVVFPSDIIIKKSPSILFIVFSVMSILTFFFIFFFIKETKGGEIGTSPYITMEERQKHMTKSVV
Experimental: (§3) Glucose uptake by P. falciparum was performed essentially as described [23]. P. falciparum strain 3D7 was cultured in 100 mm tissue culture dishes (Techno Plastic Products) in a 2% suspension of human erythrocytes and RPMI 1640 medium until reaching > 7.5% parasitemia. Cells were pelleted via centrifugation and resuspended in RPMI 1640 medium. To determine the uptake of radiolabeled glucose into the parasite, parasites were isolated from infected erythrocytes by permeablization with saponin (0.05 w/v), followed by centrifugation, aspiration of supernatant and washing of the pellet 3X with saline solution (135 mM NaCl, 2 mM KCl, 25 mM HEPES, 0.2 mM glucose and 1 mM MgCl2; pH 7.1) to remove cellular debris. WU-1 or DMSO vehicle were added to 100 μl parasites (resuspended in saline) 5 min prior to the addition of 100 μl [^14C]2-DOG (0.2- μCi/ml final concentration). 2-DG uptake was stopped after 2 min by layering the entire reaction over 300 μl of an oil mixture (5:4 mix of dibutyl phthalate / dinonyl phthalate) in Eppendorf tubes and centrifuged at 15,850 × g for 2 mins. The ratio of the estimated intracellular concentration of radiolabel relative to the extracellular concentration were calculated as described [23]. Uptake of radiolabeled hexose into HEK293 cells was measured in glucose-free HBSS as described previously [24]. Briefly, cells were plated at 400,000 cells/well overnight at 37°C in 24-well plates pre-treated with PEI. After 30-min incubation at 37°C in glucose-free HBSS in the presence of vehicle or increasing concentrations of compound, 2-DG uptake was measured in glucose-free HBSS for 4 min at 37°C. Cultures were washed in ice-cold 1X PBS and lysed in 0.1% Triton X-100 in 1X PBS. Radiolabeled hexose uptake was determined by liquid scintillation counting (Ultima Gold, Thermo Fisher) and normalized to total protein per well. Uptake data are plotted as percent uptake relative to vehicle-treated cells. Kinetic analyses were performed using the indicated concentrations of substrate and WU-1, with quenching of uptake after 1 min incubation. […] Data were fit by least squares nonlinear regression analysis using GraphPad Prism 6.0 software.

[2] = target: T2, FTPfHT (Plasmodium falciparum, UniProt Q7KWJ5); experiment: Kinetic analysis of 2-DG uptake (Km) in HEK293 cells overexpressing FTPfHT; format: cell-based; set-up: the 38–40 kDa band represents full length PfHT; expressed in transfected cells; host or cells: HEK293-FLIP (HEK293); conditions: average of Expt 1-3
T2 sequence (Q7KWJ5 1-504): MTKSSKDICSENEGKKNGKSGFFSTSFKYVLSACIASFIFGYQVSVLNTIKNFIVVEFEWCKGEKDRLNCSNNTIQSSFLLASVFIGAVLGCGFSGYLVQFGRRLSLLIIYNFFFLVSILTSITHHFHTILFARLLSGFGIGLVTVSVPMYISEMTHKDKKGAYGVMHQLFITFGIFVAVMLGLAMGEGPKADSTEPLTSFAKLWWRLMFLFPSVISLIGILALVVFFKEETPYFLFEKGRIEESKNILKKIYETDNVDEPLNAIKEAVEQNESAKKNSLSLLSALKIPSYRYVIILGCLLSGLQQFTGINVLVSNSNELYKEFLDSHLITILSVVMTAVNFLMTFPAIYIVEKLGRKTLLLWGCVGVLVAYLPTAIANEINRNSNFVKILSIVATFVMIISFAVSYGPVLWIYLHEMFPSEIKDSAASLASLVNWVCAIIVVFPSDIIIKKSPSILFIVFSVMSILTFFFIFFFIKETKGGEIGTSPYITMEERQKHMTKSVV
Experimental: (§4) Glucose uptake by P. falciparum was performed essentially as described [23]. P. falciparum strain 3D7 was cultured in 100 mm tissue culture dishes (Techno Plastic Products) in a 2% suspension of human erythrocytes and RPMI 1640 medium until reaching > 7.5% parasitemia. Cells were pelleted via centrifugation and resuspended in RPMI 1640 medium. To determine the uptake of radiolabeled glucose into the parasite, parasites were isolated from infected erythrocytes by permeablization with saponin (0.05 w/v), followed by centrifugation, aspiration of supernatant and washing of the pellet 3X with saline solution (135 mM NaCl, 2 mM KCl, 25 mM HEPES, 0.2 mM glucose and 1 mM MgCl2; pH 7.1) to remove cellular debris. […] The ratio of the estimated intracellular concentration of radiolabel relative to the extracellular concentration were calculated as described [23]. Uptake of radiolabeled hexose into HEK293 cells was measured in glucose-free HBSS as described previously [24]. […] After 30-min incubation at 37°C in glucose-free HBSS in the presence of vehicle or increasing concentrations of compound, 2-DG uptake was measured in glucose-free HBSS for 4 min at 37°C. […] Radiolabeled hexose uptake was determined by liquid scintillation counting (Ultima Gold, Thermo Fisher) and normalized to total protein per well. […]

[3] = test system: GLUT1 Y293I; set-up: method as in PMID 8157690; conditions: GLUT1 Y293I vs wild type; cited from earlier work
[4] = target: T1, PfHT; experiment: 2-DG uptake by HEK293 cells overexpressing PfHT; format: cell-based; set-up: expressed in transfected cells; host or cells: HEK293 (HEK293-FLIP, native hGLUT1 knocked down by shRNA)
Excerpt: (§1) Generation of HEK293 cells overexpressing PfHT and human GLUTs 1–4 were described elsewhere. Briefly, HEK293 cells were transfected with pcDNA3.1 FLII12Pglu-7006 (Addgene), containing the fluorescence resonance energy transfer (FRET) glucose sensor (HEK293-FLIP) and PfHT, human GLUT1 (hGLUT1), hGLUT2, hGLUT3, hGLUT4, hGLUT5 or hGLUT8 using Optifect (Life Technologies) according to manufacturer’s specifications. To increase retention of GLUT8 at the plasma membrane, the dileucine sorting signal E^7E^8XXXLL was modified to R^7R^8XXXLL as described in [17]. Stable transfectants were selected for G418 and hygromycin resistance to select for FRET sensor and hexose transporter, respectively. HEK293-FLIP cells were also used to generate cells stably transfected with FLAG-tagged PfHT (FTPfHT). FLAG tag ([…]) followed by a triple glycine linker and a tobacco etch virus (TEV) protease site (ENLYFQS) followed by a triple glycine linker was added to the N-terminus of PfHT via PCR [18] using Phusion Hot Start II High-Fidelity DNA Polymerase (Fisher Scientific). Single clones were selected by comparing their abilities to transport glucose as assayed via FRET and radiolabeled hexose uptake. In all cell lines, except for HEK293 cells overexpressing hGLUT1 and hGLUT5, native hGLUT1 was knocked down using shRNA as described elsewhere. Transcript levels of the individual GLUTs expressed in each cell line are as described in [13, 15] and in S1 Fig.
(§2) Glucose uptake by P. falciparum was performed essentially as described. P. falciparum strain 3D7 was cultured in 100 mm tissue culture dishes (Techno Plastic Products) in a 2% suspension of human erythrocytes and RPMI 1640 medium until reaching > 7.5% parasitemia. Cells were pelleted via centrifugation and resuspended in RPMI 1640 medium. To determine the uptake of radiolabeled glucose into the parasite, parasites were isolated from infected erythrocytes by permeablization with saponin (0.05 w/v), followed by centrifugation, aspiration of supernatant and washing of the pellet 3X with saline solution (135 mM NaCl, 2 mM KCl, 25 mM HEPES, 0.2 mM glucose and 1 mM MgCl2; pH 7.1) to remove cellular debris. WU-1 or DMSO vehicle were added to 100 μl parasites (resuspended in saline) 5 min prior to the addition of 100 μl [^14C]2-DOG (0.2- μCi/ml final concentration). 2-DG uptake was stopped after 2 min by layering the entire reaction over 300 μl of an oil mixture (5:4 mix of dibutyl phthalate / dinonyl phthalate) in Eppendorf tubes and centrifuged at 15,850 × g for 2 mins. The ratio of the estimated intracellular concentration of radiolabel relative to the extracellular concentration were calculated as described. Uptake of radiolabeled hexose into HEK293 cells was measured in glucose-free HBSS as described previously. Briefly, cells were plated at 400,000 cells/well overnight at 37°C in 24-well plates pre-treated with PEI. After 30-min incubation at 37°C in glucose-free HBSS in the presence of vehicle or increasing concentrations of compound, 2-DG uptake was measured in glucose-free HBSS for 4 min at 37°C. Cultures were washed in ice-cold 1X PBS and lysed in 0.1% Triton X-100 in 1X PBS. Radiolabeled hexose uptake was determined by liquid scintillation counting (Ultima Gold, Thermo Fisher) and normalized to total protein per well. Uptake data are plotted as percent uptake relative to vehicle-treated cells. Kinetic analyses were performed using the indicated concentrations of substrate and WU-1, with quenching of uptake after 1 min incubation. Incubation times had been previously determined as being in the linear range of time-dependent radiolabeled hexose uptake (2 min for 2-DG uptake into freed parasites; 2 and 4 min for D-Frc and 2-DG uptake HEK cell lines, respectively). Data were fit by least squares nonlinear regression analysis using GraphPad Prism 6.0 software.

[5] = target: T2, FTPfHT; experiment: 2-DG uptake by HEK293 cells overexpressing FLAG-tagged PfHT (FTPfHT); format: cell-based; set-up: the 38–40 kDa band represents full length PfHT; expressed in transfected cells; host or cells: HEK293-FLIP (HEK293); key to 2-DG Uptake AVE: % uptake relative to vehicle-treated cells
Excerpt: as §1, §2

[6] = test system: blood stage parasites; set-up: method as in PMID 26248369; conditions: read-out: IC50 against blood stage parasites; cited from earlier work
[7] = substrate: O=CC[C@@H](O)[C@H](O)[C@H](O)CO; experiment: cells, lysate or membranes; format: cell-based, Plasmodium falciparum; conditions: other: 2-DG uptake (1 min), FTPfHT; pH 7.1; 37.0 °C
Experimental: as §4

[8] = substrate: O=CC[C@@H](O)[C@H](O)[C@H](O)CO; experiment: cells, lysate or membranes; conditions: other: 2-DG uptake (1 min), PfHT; pH 7.1; 37.0 °C
Experimental: as §3

With O=C(CO)[C@@H](O)[C@H](O)[C@H](O)CO [D-frc] the “Km (1/v) D-frc uptake: AVE IC50” value ([1]; average of Expt 1-3) was 1.83 mM, the “Km (1/v) D-frc uptake: IC50” value ([1]; single experiments Expt 1-3) was 2.5 mM and 1.6 mM and 1.38 mM and the “Km (1/v) D-frc uptake: AVE IC50” value [2] was 2.07 mM.

For CC1OC[C@H]2O[C@H](O)[C@H](O)[C@@H](O)[C@@H]2O1 (stereo partly drawn) [Ethylideneglucose, 4,6-O-ethylidene-α-D-glucose, reference compound], the “decrease of Ki by Y293I mutation” value [3] is given as over 2 fold, the IC50 ([4]; PfHT, 2-DG Uptake, average of Expt 1-3, read-out: AVE IC50) is given as 5.79 mM and the IC50 ([4]; PfHT, 2-DG Uptake, single experiments Expt 1-3, read-out: IC50) is given as 5.99 mM. The “2-DG Uptake AVE” value ([4]; PfHT, concentration 0.001 mM, Expt 1-3) was 100.00, the “2-DG Uptake AVE” value ([4]; PfHT, concentration 0.3125 mM) was 94.37 and 96.75 and 86.10 and the “2-DG Uptake AVE” value ([4]; PfHT, concentration 0.625 mM) was 89.78 and 84.91 and 77.97. For the same molecule, the “2-DG Uptake AVE” value ([4]; PfHT, concentration 1.25 mM) was 82.38 and 77.88 and 79.22, the “2-DG Uptake AVE” value ([4]; PfHT, concentration 2.5 mM) was 70.45 and 76.21 and 65.14 and the “2-DG Uptake AVE” value ([4]; PfHT, concentration 5 mM) was 56.80 and 57.04 and 54.41. The “2-DG Uptake AVE” value ([4]; PfHT, concentration 10 mM) was 38.62 and 35.32 and 38.49, the “2-DG Uptake AVE” value ([4]; PfHT, concentration 20 mM) was 25.77 and 23.49 and 21.21 and the “2-DG Uptake AVE” value ([4]; PfHT, concentration 40 mM) was 17.24 and 14.68 and 18.76. The “2-DG Uptake AVE” value ([4]; PfHT, concentration 80 mM) was 11.01 and 10.15 and 11.14, the “2-DG Uptake AVE” value ([4]; PfHT, concentration 160 mM) was 6.85 and 7.66 and 8.85 and the “2-DG Uptake AVE” value ([4]; PfHT, concentration 320 mM) was 4.36 and 4.29 and 5.25. For the same molecule, the IC50 ([4]; read-out: IC50 for inhibition of 2-DG uptake, HEK293 cells overexpressing PfHT) was 5.9 ± 0.15 mM, the IC50 ([5]; FTPfHT, 2-DG Uptake, single experiments Expt 1-3, read-out: IC50) was 1.49 mM and 1.83 mM and 1.17 mM and the “2-DG Uptake AVE” value ([5]; FTPfHT, concentration 0.001 mM, Expt 1-3) was 100.00. The “2-DG Uptake AVE” value ([5]; FTPfHT, concentration 0.0390625 mM) was 96.35, the “2-DG Uptake AVE” value ([5]; FTPfHT, concentration 0.078125 mM) was 89.02 and 99.10 and 95.29 and the “2-DG Uptake AVE” value ([5]; FTPfHT, concentration 0.15625 mM) was 83.11 and 96.24 and 85.58. The “2-DG Uptake AVE” value ([5]; FTPfHT, concentration 0.3125 mM) was 83.21 and 82.95 and 84.08, the “2-DG Uptake AVE” value ([5]; FTPfHT, concentration 0.63 mM) was 73.60 and 68.20 and 76.54 and the “2-DG Uptake AVE” value ([5]; FTPfHT, concentration 1.25 mM) was 62.34 and 52.24 and 56.96. For the same molecule, the “2-DG Uptake AVE” value ([5]; FTPfHT, concentration 2.5 mM) was 40.70 and 31.77 and 32.91, the “2-DG Uptake AVE” value ([5]; FTPfHT, concentration 5 mM) was 18.95 and 15.78 and 18.06 and the “2-DG Uptake AVE” value ([5]; FTPfHT, concentration 10 mM) was 13.87 and 9.18 and 10.65. For the same molecule, the “2-DG Uptake AVE” value ([5]; FTPfHT, concentration 20 mM) was 7.63 and 6.14 and 7.00, the “2-DG Uptake AVE” value ([5]; FTPfHT, concentration 40 mM) was 5.44 and 4.46 and 5.15 and the “2-DG Uptake AVE” value ([5]; FTPfHT, concentration 80 mM) was 5.14 and 3.60. It also gave an IC50 ([5]; read-out: IC50 for inhibition of 2-DG uptake, HEK293 cells overexpressing FTPfHT) of 1.5 ± 0.2 mM.

For Cc1cccc(C)c1OCC(=O)N[C@@H](Cc1ccccc1)[C@@H](O)C[C@H](Cc1ccccc1)NC(=O)[C@H](C(C)C)N1CCCNC1=O [lopinavir], the IC50 [6] is given as 16 µM.

B1: FTPfHT (Plasmodium falciparum 3D7) (protein)
chain: MTKSSKDICSENEGKKNGKSGFFSTSFKYVLSACIASFIFGYQVSVLNTIKNFIVVEFEWCKGEKDRLNCSNNTIQSSFLLASVFIGAVLGCGFSGYLVQFGRRLSLLIIYNFFFLVSILTSITHHFHTILFARLLSGFGIGLVTVSVPMYISEMTHKDKKGAYGVMHQLFITFGIFVAVMLGLAMGEGPKADSTEPLTSFAKLWWRLMFLFPSVISLIGILALVVFFKEETPYFLFEKGRIEESKNILKKIYETDNVDEPLNAIKEAVEQNESAKKNSLSLLSALKIPSYRYVIILGCLLSGLQQFTGINVLVSNSNELYKEFLDSHLITILSVVMTAVNFLMTFPAIYIVEKLGRKTLLLWGCVGVLVAYLPTAIANEINRNSNFVKILSIVATFVMIISFAVSYGPVLWIYLHEMFPSEIKDSAASLASLVNWVCAIIVVFPSDIIIKKSPSILFIVFSVMSILTFFFIFFFIKETKGGEIGTSPYITMEERQKHMTKSVV
notes: the 38–40 kDa band represents full length PfHT; expressed in transfected cells; host or cells: HEK293-FLIP (HEK293)
For B1, the Km [7] was 2.1 ± 0.5 mM.

B2: PfHT (Plasmodium falciparum 3D7) (protein)
chain: MTKSSKDICSENEGKKNGKSGFFSTSFKYVLSACIASFIFGYQVSVLNTIKNFIVVEFEWCKGEKDRLNCSNNTIQSSFLLASVFIGAVLGCGFSGYLVQFGRRLSLLIIYNFFFLVSILTSITHHFHTILFARLLSGFGIGLVTVSVPMYISEMTHKDKKGAYGVMHQLFITFGIFVAVMLGLAMGEGPKADSTEPLTSFAKLWWRLMFLFPSVISLIGILALVVFFKEETPYFLFEKGRIEESKNILKKIYETDNVDEPLNAIKEAVEQNESAKKNSLSLLSALKIPSYRYVIILGCLLSGLQQFTGINVLVSNSNELYKEFLDSHLITILSVVMTAVNFLMTFPAIYIVEKLGRKTLLLWGCVGVLVAYLPTAIANEINRNSNFVKILSIVATFVMIISFAVSYGPVLWIYLHEMFPSEIKDSAASLASLVNWVCAIIVVFPSDIIIKKSPSILFIVFSVMSILTFFFIFFFIKETKGGEIGTSPYITMEERQKHMTKSVV
For B2, the Km [8] was 1.8 ± 0.3 mM.
